Test [1] deals with Mitochondrial complex I; NADH oxidoreductase (Bos taurus, UniProt P25708+P52505). Put plainly: Inhibitory activity against NADH oxidase in beef heart mitochondrial complex I. The test is classed as protein-complex assay.
For test [2], the target named is Mitochondrial complex I; NADH oxidoreductase (Bos taurus) (UniProt P25708+P52505). The test is described as follows: Inhibitory potency against NADH oxidase with respect to compound 2c. The test is classed as protein-complex assay.
A short description of test [3]: Inhibitory activity against NADH/DH oxidoreductase in beef heart mitochondrial complex I. Set-up: species or system Bos taurus.
The species named for the next test is Bos taurus. Put plainly: Inhibitory potency against NADH/DH oxidoreductase with respect to rotenone.

Sequence of Mitochondrial complex I; NADH oxidoreductase (P25708 21-464 limits assumed, other chains not shown): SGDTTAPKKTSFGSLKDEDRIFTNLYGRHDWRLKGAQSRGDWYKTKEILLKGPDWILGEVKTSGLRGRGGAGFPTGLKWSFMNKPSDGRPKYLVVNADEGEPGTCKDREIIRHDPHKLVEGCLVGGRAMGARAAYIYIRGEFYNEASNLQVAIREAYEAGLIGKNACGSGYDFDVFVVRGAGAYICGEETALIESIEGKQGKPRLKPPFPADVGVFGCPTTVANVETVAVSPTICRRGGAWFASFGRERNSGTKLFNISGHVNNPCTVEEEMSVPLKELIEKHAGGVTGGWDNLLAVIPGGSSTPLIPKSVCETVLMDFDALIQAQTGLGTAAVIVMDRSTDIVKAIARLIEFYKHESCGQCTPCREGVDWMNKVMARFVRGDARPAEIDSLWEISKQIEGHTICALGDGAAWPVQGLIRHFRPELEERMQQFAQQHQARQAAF

By IC50 is commonly meant the concentration needed to halve the response being measured. Consider `CCCCCCCCCCCC[C@H](O)[C@@H]1CC[C@@H]([C@@H](O)CCCCC(=O)CCCCC[C@@H]2CC(CC(C)=O)C(=O)O2)O1` (some centres not stated), for which the values for the IC50 in test [1] and in test [3] were 0.7 nM and 1.1 nM, respectively. Besides, the figures for the Relative potency (in test [2]; in the test filed under Bos taurus) were 1 and 0.13, respectively.

Regarding `C=C(C)[C@H]1Cc2c(ccc3c2O[C@@H]2COc4cc(OC)c(OC)cc4[C@@H]2C3=O)O1` [ROTENONE], the IC50 came out at 5.1 nM in test [1] and 28.8 nM in test [3]. The Relative potency in test [2] was determined as 7.2; in the test listed under Bos taurus, 1.

In the case of `CCCCCCCCCCCC[C@H](O)[C@@H]1CC[C@@H]([C@@H](O)CCCC[C@@H](O)CCCCC[C@@H]2CC(C/C(C)=N/O)C(=O)O2)O1` (some centres not stated), the IC50 is 1.9 nM in test [1] and 8.7 nM in test [3]. For the same molecule, the Relative potency in test [2] is 2.7; in the test filed under Bos taurus, 0.37.

In the case of `CCCCCCCCCCCC[C@H](O)[C@@H]1CC[C@@H]([C@@H](O)CCCC[C@@H](O)CCCCC[C@@H]2CC(CC(C)=O)C(=O)O2)O1` (some centres not stated), the IC50 in test [1] is 3.3 nM; in test [3], 14.6 nM. The Relative potency in test [2] stood at 4.7; in the test filed under Bos taurus, 0.64.

With `CCCCCCCCCCCC[C@H](O)[C@@H]1CC[C@@H]([C@@H](O)CCCCC(=O)CCCCC[C@@H](O)CC2=C[C@H](C)OC2=O)O1`, the IC50 came to 0.8 nM in test [1] and 3.7 nM in test [3]. Further, the Relative potency in test [2] is 1.1; in the test listed under Bos taurus it was 0.15.

On to `CCCCCCCCCCCC[C@H](O)[C@@H]1CC[C@@H]([C@@H](O)CCCC[C@@H](O)CCCCC[C@@H](O)CC2C[C@H](C)OC2=O)O1` (some centres not stated), for which the half-inhibitory concentration (IC50) is 3.6 nM in test [1] and 19.9 nM in test [3]. Moreover, the Relative potency in test [2] turned out to be 5.1; in the test filed under Bos taurus, 0.7.

Turning to `CCCCCCCCCCCC[C@H](O)[C@@H]1CC[C@@H]([C@@H](O)CCCCC(CCCCC[C@@H](O)CC2=C[C@H](C)OC2=O)NCCc2ccc(OC)c(OCc3ccccc3)c2)O1` (some centres not stated), the values for the IC50 in test [1] and in test [3] were more than 150 nM and more than 1200 nM, respectively.

In the case of `CCCCCCCCCCCC[C@H](O)[C@@H]1CC[C@@H]([C@@H](O)CCCC/C(CCCCC[C@@H](O)CC2=C[C@H](C)OC2=O)=N\O)O1`, the half-maximal inhibitory concentration (IC50) turned out to be 2.7 nM in test [1] and 10.3 nM in test [3]. In addition, the Relative potency in test [2] came to 3.8; in the test listed under Bos taurus, 0.52.

Consider `CCCCCCCCCCCC[C@H](O)[C@@H]1CC[C@@H]([C@@H](O)CCCC[C@@H](O)CCCCC[C@@H](O)CC2(O)C(=O)O[C@@H](C)C2O)O1` (some centres not stated), for which the results for the IC50 in test [1] and in test [3] were 21.8 nM and 55.2 nM, respectively. For the same molecule, the Relative potency in test [2] is 31.1; in the test listed under Bos taurus it was 4.27.

Turning to `CCCCCCCCCCCC[C@H](O)[C@@H]1CC[C@@H]([C@@H](O)CCCC[C@@H](O)CCCCC[C@@H](O)CC2=C[C@H](C)OC2=O)O1`, the IC50 amounted to 2.3 nM in test [1] and 26.1 nM in test [3]. In addition, the figures for the Relative potency (in test [2]; in the test filed under Bos taurus) were 3.2 and 0.62, respectively.

With `CCCCCCCCCCCC[C@H](O)[C@@H]1CC[C@@H]([C@@H](O)CCCC[C@@H](O)CCCCC[C@@H]2CC(CC(C)O)C(=O)O2)O1` (some centres not stated), the IC50 in test [1] was 5.8 nM; in test [3], 51 nM. For the same molecule, the Relative potency in test [2] came out at 8.2; in the test filed under Bos taurus, 1.1.
